According to PubChem BioAssay (NCI):
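Five compound concentrations were applied to cells in 96-well plates for 48 hours; endpoints were derived by simple linear interpolation of the resulting dose-response curve. GI50: concentration for 50% inhibition of growth. The concentration for full growth arrest is given as TGI.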

How the values were obtained:
Assay in all cases: NCI anticancer screen, dose series, 48 h
T-47D breast = system: T-47D breast
SK-MEL-28 melanoma = system: SK-MEL-28 melanoma
NCI/ADR-RES ovarian = system: NCI/ADR-RES ovarian
TK-10 renal = system: TK-10 renal
NCI-H226 lung = system: NCI-H226 lung
SR leukemia = system: SR leukemia
NCI-H522 lung = system: NCI-H522 lung
EKVX NSCLC = system: EKVX NSCLC
MALME-3M melanoma = system: MALME-3M melanoma
SN12C renal = system: SN12C renal

Row | SMILES | GI50 (T-47D breast) | TGI (T-47D breast) | GI50 (SK-MEL-28 melanoma) | TGI (SK-MEL-28 melanoma) | GI50 (NCI/ADR-RES ovarian) | TGI (NCI/ADR-RES ovarian) | GI50 (TK-10 renal) | TGI (TK-10 renal) | GI50 (NCI-H226 lung) | TGI (NCI-H226 lung) | GI50 (SR leukemia) | TGI (SR leukemia) | GI50 (NCI-H522 lung) | TGI (NCI-H522 lung) | GI50 (EKVX NSCLC) | TGI (EKVX NSCLC) | GI50 (MALME-3M melanoma) | TGI (MALME-3M melanoma) | GI50 (SN12C renal) | TGI (SN12C renal)
1 | COc1ccccc1Nc1cc(O)c2c(=O)cc(-c3ccccc3)oc2c1 | 4.36 µM | > 100 µM | 3.64 µM | 25.8 µM | 1.99 µM | 18 µM | 10.4 µM | 28.6 µM | 4.38 µM | 28.8 µM | 0.529 µM | > 100 µM | 2.67 µM | 27.1 µM | 4.83 µM | 56 µM | 2.13 µM | 11.9 µM | 3.5 µM | 17.6 µM
2 | CC(C)(C)C(=O)OCOP(=O)(NCc1ccccc1)C1CCCN(O)C1=O (stereo unspecified) | 1.98 µM | 57.6 µM | 1.74 µM | 5.68 µM | 2.03 µM | 6.65 µM | 3.12 µM | 43.2 µM | 0.462 µM | 3.43 µM | 0.985 µM | > 100 µM | 1.78 µM | 21.9 µM | 3.91 µM | 78.8 µM | 1 µM | 6.96 µM | 0.752 µM | 9.21 µM
3 | Cc1cnc2n1S(=O)(=O)c1cc(C(=O)Nc3cccc4nsnc34)c(Cl)cc1S2 | 11.5 µM | 31.9 µM | 19.8 µM | 42.6 µM | 16.2 µM | 34.1 µM | 19.8 µM | 40 µM | 17.3 µM | 34.2 µM | 29.1 µM | > 100 µM | 47.6 µM | > 100 µM | 46.8 µM | > 100 µM | 13.9 µM | 40.9 µM | 25.3 µM | 58.5 µM
4 | O=C(O)CSc1n[nH]c(=O)[nH]c1=O | – | > 100 µM | – | > 100 µM | – | > 100 µM | – | – | – | > 100 µM | – | > 100 µM | – | > 100 µM | – | > 100 µM | – | > 100 µM | – | > 100 µM
5 | CCc1ccc(Oc2c(-c3ccc(OCc4ccc(Cl)cc4)cc3O)n[nH]c2C(F)(F)F)cc1 | 1.71 µM | 4.25 µM | 1.82 µM | 3.37 µM | 2.11 µM | 4.85 µM | 2 µM | 4.75 µM | 2.11 µM | 5.26 µM | 2.78 µM | 6.92 µM | 1.72 µM | 4.33 µM | 1.89 µM | 4.34 µM | 1.78 µM | 3.47 µM | 1.72 µM | 3.35 µM
6 | Oc1ccc(C=Nc2ccccc2O)cc1 | – | > 100 µM | – | > 100 µM | – | > 100 µM | – | > 100 µM | – | > 100 µM | – | > 100 µM | – | > 100 µM | – | > 100 µM | – | – | – | > 100 µM
7 | O=C1NC(=C(Cl)Cl)/C(=N/S(=O)(=O)N2CCCCC2)N1 | 5.94 µM | 64.5 µM | 1.92 µM | 3.56 µM | 3.87 µM | 29.2 µM | 4.82 µM | > 100 µM | 3.37 µM | 14.9 µM | 1.5 µM | 3.89 µM | 1.59 µM | 3.39 µM | – | – | 1.82 µM | 3.49 µM | 1.7 µM | 3.14 µM
